Patent publication US12286442B2, “Methods and materials for increasing transcription factor eb polypeptide levels” (University of Pittsburgh—Of the Commonwealth System of …, priority 2019, dated 2025)

Assays:
BEAS-2B cells = assay: Toxicity: compound concentration needed to induce greater than 50 percent of cell loss; type: cell-based, human; details: 18 hours incubation
In short: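 BEAS-2B cells stably expressing TFEB-EGFP treated with serial compound dilutions for 18 h, then PFA-fixed, DAPI-stained and imaged. Toxicity scored as the concentration causing >50% cell loss, binned as ≥25 μM, <25 and >1 μM, or ≤1 μM ("+++").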

TFEB = assay: High content screen measuring TFEB nuclear accumulation (TFEB nuclear/cytosol ratio) in BEAS-2B cells stably expressing TFEB-EGFP; type: cell-based, human; details: 18 hours incubation
In short: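 BEAS-2B cells stably expressing TFEB-EGFP (~2300–2500 per well) pre-incubated 8 hours, then exposed to serially diluted compounds (DMEM low glucose, 2% FBS) for 18 hours, PFA-fixed and DAPI-stained. Imaged nuclear (DAPI mask) vs cytosolic (expanded mask) TFEB-GFP; activity = minimal concentration raising nuclear/cytosol ratio by 25%.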

SMILES	toxicity (compound concentration needed to induce greater than 50 percent of cell loss) (BEAS-2B cells)	efficacy (minimal compound concentration needed to increase TFEB nuclear/cytosol ratio by 25%) (TFEB)
Cc1nc2ccc(Nc3nc(-c4ccncc4)nc4ncccc34)cc2o1 [Compound 146]	+ (cell loss of greater than 50 percent at a concentration that equals or is greater than 25 μM was represented as)	+++ (“+++” equals ≤1 μM)
CCc1nc2ccc(Nc3nc(-c4ccncc4)nc4ccc(C)cc34)cc2s1 [Compound 147]	+ (cell loss of greater than 50 percent at a concentration that equals or is greater than 25 μM was represented as)	++ (“++” equals between ≤25 μM and >1 μM)
CCc1nc2ccc(Nc3nc(-c4ccncc4)nc4c(C)cccc34)cc2s1 [Compound 148]	+ (cell loss of greater than 50 percent at a concentration that equals or is greater than 25 μM was represented as)	+++ (“+++” equals ≤1 μM)
CCc1nc2ccc(Nc3nc(-c4ccncc4)nc4ccc(OC)cc34)cc2s1 [Compound 149]	++ (cell loss of greater than 50 percent at a concentration less than 25 μM and greater than 1 μM was represented as)	++ (“++” equals between ≤25 μM and >1 μM)
CCc1nc2ccc(Nc3nc(-c4ccncc4)nc4cc(OC)ccc34)cc2s1 [Compound 150]	++ (cell loss of greater than 50 percent at a concentration less than 25 μM and greater than 1 μM was represented as)	+++ (“+++” equals ≤1 μM)
CCc1nc2ccc(Nc3nc(-c4ccncc4)nc4ccc(F)cc34)cc2s1 [Compound 151]	+ (cell loss of greater than 50 percent at a concentration that equals or is greater than 25 μM was represented as)	+++ (“+++” equals ≤1 μM)
COc1cccc2nc(-c3ccncc3)nc(Nc3ccc4nc(C(C)C)sc4c3)c12 [Compound 152]	+ (cell loss of greater than 50 percent at a concentration that equals or is greater than 25 μM was represented as)	++ (“++” equals between ≤25 μM and >1 μM)
COc1cccc2c(Nc3ccc4nc(C(C)C)sc4c3)nc(-c3ccncc3)nc12 [Compound 153]	+ (cell loss of greater than 50 percent at a concentration that equals or is greater than 25 μM was represented as)	++ (“++” equals between ≤25 μM and >1 μM)
Cc1ccc2nc(-c3ccncc3)nc(Nc3ccc4nc(C(C)C)sc4c3)c2c1 [Compound 154]	+ (cell loss of greater than 50 percent at a concentration that equals or is greater than 25 μM was represented as)	+++ (“+++” equals ≤1 μM)
Cc1cccc2c(Nc3ccc4nc(C(C)C)sc4c3)nc(-c3ccncc3)nc12 [Compound 155]	+ (cell loss of greater than 50 percent at a concentration that equals or is greater than 25 μM was represented as)	+++ (“+++” equals ≤1 μM)
Cc1cccc2c(Nc3cc(F)c4[nH]ccc4c3)nc(-c3ccncc3)nc12 [Compound 156]	+ (cell loss of greater than 50 percent at a concentration that equals or is greater than 25 μM was represented as)	+++ (“+++” equals ≤1 μM)
Fc1cc(Nc2nc(-c3ccncc3)nc3ncccc23)cc2cc[nH]c12 [Compound 157]	++ (cell loss of greater than 50 percent at a concentration less than 25 μM and greater than 1 μM was represented as)	+++ (“+++” equals ≤1 μM)
Fc1cccc2c(Nc3cc(F)c4[nH]ccc4c3)nc(-c3ccncc3)nc12 [Compound 158]	+ (cell loss of greater than 50 percent at a concentration that equals or is greater than 25 μM was represented as)	+++ (“+++” equals ≤1 μM)
Cc1ccc(-c2nc(Nc3cccc(F)c3)c3ccccc3n2)cc1 [Compound 159]	+ (cell loss of greater than 50 percent at a concentration that equals or is greater than 25 μM was represented as)	+ (“+” equals >25 μM)
O=[N+]([O-])c1cccc(-c2nc(Nc3cccc(F)c3)c3ccccc3n2)c1 [Compound 161]	+ (cell loss of greater than 50 percent at a concentration that equals or is greater than 25 μM was represented as)	+ (“+” equals >25 μM)
Nc1c(Cl)cc(Nc2nc(-c3ccncc3)nc3ccccc23)cc1Cl [Compound 162]	+ (cell loss of greater than 50 percent at a concentration that equals or is greater than 25 μM was represented as)	+ (“+” equals >25 μM)
COc1ccc(-c2nc(Nc3ccc(C)c(F)c3)c3ccccc3n2)cc1 [Compound 163]	+ (cell loss of greater than 50 percent at a concentration that equals or is greater than 25 μM was represented as)	+ (“+” equals >25 μM)
CCCCNc1nc(-c2ccncc2)nc2ccccc12 [Compound 164]	+ (cell loss of greater than 50 percent at a concentration that equals or is greater than 25 μM was represented as)	+ (“+” equals >25 μM)
c1ccc2c(NC3CC3)nc(-c3ccncc3)nc2c1 [Compound 165]	+ (cell loss of greater than 50 percent at a concentration that equals or is greater than 25 μM was represented as)	+ (“+” equals >25 μM)
CCCN(CCC)c1nc(-c2ccncc2)nc2ccccc12 [Compound 166]	+ (cell loss of greater than 50 percent at a concentration that equals or is greater than 25 μM was represented as)	+ (“+” equals >25 μM)
c1ccc(CCNc2nc(-c3ccncc3)nc3ccccc23)cc1 [Compound 167]	+ (cell loss of greater than 50 percent at a concentration that equals or is greater than 25 μM was represented as)	++ (“++” equals between ≤25 μM and >1 μM)
